The values below come from PubChem BioAssay AID977625 (Broad Institute, 2014).

Records with an inconclusive call do not appear. The source made the active and inactive calls.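 Rule for the calls: active = red signal from normal-ribosome E. coli cut at least twice as much as green humanized-ribosome signal, growth cut under 30%; inconclusive = no clear call, values can overlap the other calls; inactive = the rest.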

Assay [1] in a line: selective ribosome h34 site antibacterial activity – h34 mutant GFP vs wild-type RFP, cherry-pick, OD600, dose response (AID 977625). To be noted: E. coli h34-humanized GFP strain growth, fluorescence, 24 h; at 50 µM (top of the series).
Assay [2] has as its system E. coli mixed culture (wild-type RFP + h34-humanized GFP), total OD600 growth, 24 h. The assay is described as above. As to conditions: E. coli h34-humanized GFP strain growth, fluorescence, 24 h; measured here: total culture OD600 growth.
The test system of assay [3] is E. coli h34-humanized GFP strain growth, fluorescence, 24 h. The assay is described as above.

As to `COc1cc2c(cc1[N+](=O)[O-])-c1ccc([N+](=O)[O-])cc1C2`, the activity change, negative = inhibition in assay [1] is -48.1 (inactive). Also, the AC50 (usually the concentration at which the activity in the assay is half-maximal) in assay [2] was 0.378 µM.
On to `CCN(CC)CCn1c2ccccc2c2nc3ccc([N+](=O)[O-])cc3cc21`, for which the AC50 in assay [3] is 1.39 µM (inactive); in assay [2], 4.35 µM.
In the case of `Cc1noc(C)c1NC(=O)Nc1ccc2c(c1)C(=O)N([C@H](C)CO)C[C@@H](C)[C@@H](CN(C)C(=O)Nc1ccc3c(c1)OCO3)OCCCC[C@@H](C)O2`, the activity change, negative = inhibition in assay [1] is 0.093 (inactive).
For `COc1ccc(Cn2c(-c3ccc(Cl)cc3)c[n+]3ccccc23)cc1`, the activity change, negative = inhibition in assay [1] was 30.2 (inactive).
Regarding `COc1ccc(-n2cc(-c3ccccc3)c3c(N4CCOCC4)ncnc32)cc1`, the AC50 in assay [3] is > 100 µM (inactive); in assay [2], 42.2 µM.
In the case of `CCOC(=O)c1c(NC(=O)Cc2cccs2)sc(C)c1C`, the activity change, negative = inhibition in assay [1] is 12.4 (inactive). Moreover, the AC50 in assay [2] was over 100 µM.
In the case of `Cc1ccc(S(=O)(=O)N2CC[C@H]3[C@H](CO)Nc4ccc(Br)cc4[C@H]32)cc1`, the activity change, negative = inhibition in assay [1] was 7.09 (inactive).
For the compound `C[C@@H]1CCCCO[C@H](CN(C)C(=O)CCCN(C)C)[C@H](C)CN([C@@H](C)CO)C(=O)c2cc(NC(=O)Nc3cccc4ccccc34)ccc2O1`, the activity change, negative = inhibition in assay [1] was 21.7 (inactive). In addition, the AC50 in assay [2] was over 100 µM.
Turning to `CC1(Cc2ccccc2C#N)C(=O)Nc2cc(-c3ccccc3Cl)ccc21` (stereo unspecified), the AC50 in assay [2] worked out at 24.8 µM.
`O=C(O)c1cc([N+](=O)[O-])ccc1NCc1ccccc1`: the AC50 in assay [2] turned out to be 20.1 µM.
With `Cc1ccc(C)c(NC(=O)CSc2nc3nc(-c4cccs4)cc(C(F)(F)F)c3c(=O)[nH]2)c1`, the activity change, negative = inhibition in assay [1] is -48.2 (inactive). Besides, the concentration at half-maximal activity (AC50) in assay [2] is 36.2 µM.
Take `CCn1c(-c2cc(-c3ccc(OC(C)C)cc3)nc3ccccc23)n[nH]c1=S`: the AC50 in assay [3] is > 100 µM (inactive).
As to `COc1cccc(C(=O)Nc2cc(C)nn2-c2ccccc2)c1OC`, in assay [1], the activity change, negative = inhibition was 18.9 (inactive). Besides, the AC50 in assay [2] is over 100 µM.
Regarding `COc1ccc2[nH]c3c(=O)n(CCCCC(=O)NCCC(C)C)c(=S)[nH]c3c2c1`, the activity change, negative = inhibition in assay [1] is -5.72 (inactive).
